From ChEMBL document CHEMBL4190311, “Discovery of cycloalkyl-fused N-thiazol-2-yl-benzamides as tissue non-specific glucokinase activators: Design, synthesis, and biological evaluation” (Eur J Med Chem, 2017)
The source made the active and inactive calls. The calls are words filed in the database; no cut-off is given here.

Legend:
Hexokinase-4 = molecular target: T1, Hexokinase-4 (Homo sapiens, UniProt P35557); experiment: Activation of recombinant human liver glucokinase 2 assessed as […] in presence of 5 mM glucose by G6PDH coupled assay
T1 sequence (P35557 whole entry): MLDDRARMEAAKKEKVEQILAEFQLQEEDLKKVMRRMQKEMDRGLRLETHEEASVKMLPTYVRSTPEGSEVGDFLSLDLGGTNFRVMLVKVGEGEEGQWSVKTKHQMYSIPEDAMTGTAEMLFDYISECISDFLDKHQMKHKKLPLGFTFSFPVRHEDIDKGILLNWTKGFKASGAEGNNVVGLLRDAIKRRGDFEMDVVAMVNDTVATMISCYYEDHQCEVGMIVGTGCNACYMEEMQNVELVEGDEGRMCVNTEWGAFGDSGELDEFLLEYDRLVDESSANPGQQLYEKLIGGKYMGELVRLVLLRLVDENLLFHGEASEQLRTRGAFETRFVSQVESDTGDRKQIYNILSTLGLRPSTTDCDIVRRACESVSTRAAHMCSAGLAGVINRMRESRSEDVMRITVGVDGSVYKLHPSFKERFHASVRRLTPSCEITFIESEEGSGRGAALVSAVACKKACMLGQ

Hepatocyte = experiment: Increase in glucose uptake in mouse primary hepatocytes assessed as glucose uptake level at 20 uM after 24 hrs by glucose oxidase method relative to control; assay type: functional
[1] = molecular target: T2, Hexokinase-4 (Rattus norvegicus) (UniProt P17712); experiment: Activation of glucokinase in rat INS1(832/13) cells assessed as increase in glucose sensitive insulin secretion at 20 uM after 2 hrs in presence of 5.5 mM glucose by AlphaLISA method relative to control; assay type: cell-based
T2 sequence (whole entry): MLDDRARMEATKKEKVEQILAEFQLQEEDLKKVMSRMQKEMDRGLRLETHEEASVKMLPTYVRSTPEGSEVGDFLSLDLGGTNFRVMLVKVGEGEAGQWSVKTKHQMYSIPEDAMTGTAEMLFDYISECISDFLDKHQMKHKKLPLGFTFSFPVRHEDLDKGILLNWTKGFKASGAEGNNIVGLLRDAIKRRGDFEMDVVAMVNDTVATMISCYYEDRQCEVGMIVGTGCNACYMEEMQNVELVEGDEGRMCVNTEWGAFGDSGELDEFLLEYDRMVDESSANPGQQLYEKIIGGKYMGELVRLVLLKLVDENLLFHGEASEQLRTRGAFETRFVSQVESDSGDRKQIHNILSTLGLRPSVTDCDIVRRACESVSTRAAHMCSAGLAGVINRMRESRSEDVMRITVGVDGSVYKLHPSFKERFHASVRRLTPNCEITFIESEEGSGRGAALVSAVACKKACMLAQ

Compound	EC50 (Hexokinase-4) [nM]	Activity (Hepatocyte)	fold change (FC) [1]
COCC(C)Oc1cc(Oc2ccc(S(C)(=O)=O)cc2)cc(C(=O)Nc2nc3c(s2)CN(c2ccccn2)CC3)c1 (stereo unspecified)	890		
COCC(C)Oc1cc(Oc2ccccc2S(C)(=O)=O)cc(C(=O)Nc2nc3c(s2)CN(C(=O)OC(C)(C)C)CC3)c1 (stereo unspecified)	> 10000		
COCC(C)Oc1cc(Oc2ccc(S(C)(=O)=O)cc2)cc(C(=O)Nc2nc3c(s2)CCC3)c1 (stereo unspecified)	100	31%	inactive
CC(C)(C)OC(=O)N1CCc2nc(NC(=O)c3cc(OCC4CCCC4)cc(Oc4ccc(S(C)(=O)=O)cc4)c3)sc2C1	> 10000		
COCC(C)Oc1cc(Oc2ccc(S(C)(=O)=O)cc2)cc(C(=O)Nc2nc3c(s2)CN(C(C)=O)CC3)c1 (stereo unspecified)	2220		
COC[C@H](C)Oc1cc(Oc2ccc(C(=O)N3CCC3)cc2)cc(C(=O)Nc2nc3c(s2)CN(C(=O)OC)CC3)c1	690	16%	5.68
COC[C@H](C)Oc1cc(Oc2ccc(C(=O)N3CCC3)cc2)cc(C(=O)Nc2nc3c(s2)CN(c2ccncn2)CC3)c1	490	16%	4.62
COCC(C)Oc1cc(Oc2cccc(S(C)(=O)=O)c2)cc(C(=O)Nc2nc3c(s2)CN(C(=O)OC(C)(C)C)CC3)c1 (stereo unspecified)	820	25%	1.14
COCC(C)Oc1cc(Oc2ccc(S(C)(=O)=O)cc2)cc(C(=O)Nc2nc3c(s2)CN(C)CC3)c1 (stereo unspecified)	8420		
CC(C)(C)OC(=O)N1CCc2nc(NC(=O)c3cc(Oc4ccc(S(C)(=O)=O)cc4)cc(OC4CCCC4)c3)sc2C1	180	26%	inactive
COCC(C)Oc1cc(Oc2ccc(S(C)(=O)=O)cc2)cc(C(=O)Nc2nc3c(s2)C(=O)CCC3)c1 (stereo unspecified)	> 10000		
COC[C@H](C)Oc1cc(Oc2ccc(C(=O)N3CCC3)cc2)cc(C(=O)Nc2nc3c(s2)CNCC3)c1	1130		
COCCN1CCc2nc(NC(=O)c3cc(Oc4ccc(C(=O)N5CCC5)cc4)cc(O[C@@H](C)COC)c3)sc2C1	210	13%	6.07
COC[C@H](C)Oc1cc(Oc2ccc(C(=O)N3CCC3)cc2)cc(C(=O)Nc2nc3c(s2)CN(c2ncccn2)CC3)c1	170	14%	6.51
COC[C@H](C)Oc1cc(Oc2ccc(C(=O)N3CCC3)cc2)cc(C(=O)Nc2nc3c(s2)CN(c2cc[nH]c(=O)c2)CC3)c1	300	inactive	5.51
COCC(C)Oc1cc(Oc2ccc(S(C)(=O)=O)cc2)cc(C(=O)Nc2nc3c(s2)COCC3)c1 (stereo unspecified)	> 10000		
COC[C@H](C)Oc1cc(Oc2ccc(C(=O)N3CCC3)cc2)cc(C(=O)Nc2nc3c(s2)CN(CCO)CC3)c1	4600		
COCC(C)Oc1cc(Oc2ccc(S(=O)(=O)C3CC3)cc2)cc(C(=O)Nc2nc3c(s2)CN(C(=O)OC(C)(C)C)CC3)c1 (stereo unspecified)	230		
COC[C@H](C)Oc1cc(Oc2ccc(C(=O)N3CCC3)cc2)cc(C(=O)Nc2nc3c(s2)CCN(C(=O)OC(C)(C)C)C3)c1	460	13%	2.24
COCC(C)Oc1cc(Oc2ccc(C(=O)N(C)C)cc2)cc(C(=O)Nc2nc3c(s2)CN(C(=O)OC(C)(C)C)CC3)c1 (stereo unspecified)	90	inactive	1.24
COCC(C)Oc1cc(Oc2ccc(S(C)(=O)=O)cc2)cc(C(=O)Nc2nc3c(s2)CN(c2ccncc2)CC3)c1 (stereo unspecified)	210	inactive	1.3
COCC(C)Oc1cc(Oc2ccc(C(=O)N3CCC3)nc2)cc(C(=O)Nc2nc3c(s2)CN(C(=O)OC(C)(C)C)CC3)c1 (stereo unspecified)	870	inactive	5.4

Compound	EC50 (Hexokinase-4) [nM]	Activity (Hepatocyte)	fold change (FC) [1]
COCC(C)Oc1cc(Oc2ccc(S(C)(=O)=O)cc2)cc(C(=O)Nc2nc3c(s2)CN(Cc2ccccc2)CC3)c1 (stereo unspecified)	> 10000		
COCC(C)Oc1cc(Oc2ccc(S(C)(=O)=O)cc2)cc(C(=O)Nc2nc3c(s2)CN(C(C)C)CC3)c1 (stereo unspecified)	7080		
COCC(C)Oc1cc(Oc2ccc(S(C)(=O)=O)nc2)cc(C(=O)Nc2nc3c(s2)CN(C(=O)OC(C)(C)C)CC3)c1 (stereo unspecified)	200	35%	1.42
CCS(=O)(=O)c1ccc(Oc2cc(OC(C)COC)cc(C(=O)Nc3nc4c(s3)CN(C(=O)OC(C)(C)C)CC4)c2)cc1 (stereo unspecified)	140	34%	inactive
COCC(C)Oc1cc(Oc2ccc(S(C)(=O)=O)cc2)cc(C(=O)Nc2nc3c(s2)CN(c2ccccc2)CC3)c1 (stereo unspecified)	> 10000		
CC(C)(C)OC(=O)N1CCc2nc(NC(=O)c3cc(OCc4ccccc4)cc(Oc4ccc(S(C)(=O)=O)cc4)c3)sc2C1	7000	21%	inactive
COCC(C)Oc1cc(Oc2ccc(S(=O)(=O)N3CCC3)cc2)cc(C(=O)Nc2nc3c(s2)CN(C(=O)OC(C)(C)C)CC3)c1 (stereo unspecified)	900	inactive	1.37
CCOC(=O)N1CCc2nc(NC(=O)c3cc(Oc4ccc(C(=O)N5CCC5)cc4)cc(O[C@@H](C)COC)c3)sc2C1	230	17%	5.45
C[C@@H](CO)Oc1cc(Oc2ccc(C(=O)N3CCC3)cc2)cc(C(=O)Nc2nc3c(s2)CN(C(=O)OC(C)(C)C)CC3)c1	1300		
COC[C@@H](C)Oc1cc(Oc2ccc(C(=O)N3CCC3)cc2)cc(C(=O)Nc2nc3c(s2)CN(C(=O)OC(C)(C)C)CC3)c1	2600		
CCN1CCc2nc(NC(=O)c3cc(Oc4ccc(S(C)(=O)=O)cc4)cc(OC(C)COC)c3)sc2C1 (stereo unspecified)	5420		
CC(C)Oc1cc(Oc2ccc(S(C)(=O)=O)cc2)cc(C(=O)Nc2nc3c(s2)CN(C(=O)OC(C)(C)C)CC3)c1	170	34%	inactive
COCC(C)Oc1cc(Oc2ccc(S(C)(=O)=O)cc2)cc(C(=O)Nc2nc3c(s2)CN(C(=O)OC(C)(C)C)CC3)c1 (stereo unspecified)	320	36%	1.72
COC[C@H](C)Oc1cc(Oc2cc(F)cc(F)c2)cc(C(=O)Nc2nc3c(s2)CN(C(=O)OC(C)(C)C)CC3)c1	200	15%	1.3
COC[C@H](C)Oc1cc(Oc2ccc(C(=O)N3CCC3)cc2)cc(C(=O)Nc2nc3c(s2)CN(C(=O)N(C)C)CC3)c1	500	21%	3.52
COCCOc1cc(Oc2ccc(S(C)(=O)=O)cc2)cc(C(=O)Nc2nc3c(s2)CN(C(=O)OC(C)(C)C)CC3)c1	2230		
COC[C@H](C)Oc1cc(Oc2ccc(C(=O)N3CCC3)c(F)c2)cc(C(=O)Nc2nc3c(s2)CN(C(=O)OC(C)(C)C)CC3)c1	330	19%	1.1
COC[C@H](C)Oc1cc(Oc2ccc(C(=O)N3CCC3)cc2)cc(C(=O)Nc2nc3c(s2)N(C(=O)OC(C)(C)C)CCC3)c1	6080		
CC(C)(C)OC(=O)N1CCc2nc(NC(=O)c3cc(Oc4ccc(S(C)(=O)=O)cc4)cc(OC4CCCCC4)c3)sc2C1	550	29%	inactive
COCC(C)Oc1cc(Oc2ccc(S(C)(=O)=O)cc2)cc(C(=O)Nc2nc3c(s2)CN(c2cccnc2)CC3)c1 (stereo unspecified)	1090		
COC[C@H](C)Oc1cc(Oc2ccc(C(=O)N3CCC3)cc2)cc(C(=O)Nc2nc3c(s2)CN(c2ccccn2)CC3)c1	290	15%	2.47
